Data published in US20260207699A1, “PHARMACEUTICAL COMPOSITION OF KAPPA OPIOID RECEPTOR AGONIST, PREPARATION METHOD THEREFOR, AND USE THEREOF” (YICHANG HUMANWELL PHARMACEUTICAL CO., LTD., priority 2022, published 2026).
Where a name gives a salt, the structure may show the parent alone.

Columns and labels:
[1] = Stability of salts of compound of formula (II), high temperature test (40° C.); format: physicochemical; settings: for stability at high temperature of 40° C. and under light of 4500 Lux: up to 30 days
Method: (§1) Samples of acetate salt, citrate salt, and phosphate salt of the compound of formula (II) were placed for investigation respectively, and the investigation conditions were high temperature test (40° C.) and light (4500 Lux). The investigation period was 5 days, 10 days and 30 days.

[2] = Stability of salts of compound of formula (II), light (4500 Lux); format: physicochemical
Method: as §1

[3] = test system: chloroquine-induced pruritus; assay: Chloroquine-induced pruritus model of ICR mice; format: in vivo; settings: 3 mg/kg subcutaneously
Method: (§2) Test sample: Prescription 5 of Example 9 of the present application was used as the test sample.
ICR mice, SPF grade, male, weighing 30 g-40 g, raised in a constant temperature environment, temperature (20±2) ° C., humidity 40%-70%; the raising environment was with a light rhythm 12 h:12 h (6:00-18:00), free feeding and water, and adaptive feeding for 1 week.
The mice were shaved on the back of the neck. After shaving, the animals were weighed, and the mice were randomly divided into 5 groups of 10 animals per group according to their body weight, which were the vehicle control group; ICI204448 (CAS No.: 121264-04-8, positive control drug) control group (3 mg/kg); Test group 1 (0.1 mg/kg); Test group 2 (0.5 mg/kg); and Test group 3 (1.5 mg/kg). After the corresponding drugs were administered subcutaneously according to groups, 400 μg of chloroquine, a pruritus model inducer, was intradermally injected into the shaved area of the back of the neck of mice. Following intradermal injection of chloroquine, mice were individually placed in transparent plexiglass boxes and the number of scratches over 30 min was counted.

[4] = Conventional injection, sterilization according to conventional requirements; format: physicochemical; settings: prepared into a conventional injection
Method: After the cooled pharmaceutical solution is centrifuged at 3000 rpm to 10000 rpm, the precipitate is collected and detected by mass spectrometry (mass spectrometry conditions: chromatographic column: ACQUITY UPLC BEH C8, 50 mm×2.1 mm, 1.7 μm (20180306-C8-08); mobile phase A: 0.1% formic acid/water; mobile phase B: 0.1% formic acid/acetonitrile; flow rate: 0.2 ml/min; column temperature: 30° C.; detector wavelength: UV-210 nm; QDa; cone voltage: positive scan 10 volts, negative scan 5 volts; capillary voltage: plus 1.5 kV, minus 0.5 kV). Based on the detected MS values, it is speculated that the white flocculent precipitate is a degradation impurity as shown in the following formula: […]

[5] = test system: mechanical allodynia; assay: Rat postoperative analgesic model, mechanical allodynia (paw withdrawal threshold); format: in vivo, Sprague-Dawley rats; settings: 3 mg/kg
Method: as §2
Sprague-Dawley rats, SPF grade, male, weighing 200 g-220 g, raised in a constant temperature environment, temperature (20±2) ° C., humidity 40%-70%; the raising environment was with a light rhythm 12 h:12 h (6:00-18:00), free feeding and water, and adaptive feeding for 1 week.
Animals were anesthetized with Zoletil (6 mg/kg)+xylazine ([…], i.p.). The toes of the animals were squeezed to confirm that the animals were fully anesthetized prior to surgery. The skin of the surgical area on the plantar site of the left hind foot was disinfected three times using iodophor and 70% ethanol. Wait until the skin was dry, to start the surgery. An incision about 1 cm long was made longitudinally toward the toe from the heel position. After incising the skin, the flexor digitorum brevis was lifted and a longitudinal blunt injury was caused. After pressing to stop bleeding, the wound was sutured. After surgery, the animals were placed on electric blankets, and returned to the cage when the animals were fully awake (free to move).
Twenty-four hours after surgery, the baseline test of mechanical allodynia was performed on rats. […] At the same time, 10 rats of the same batch were taken as the control of the normal group. Mechanical allodynia tests were performed at 0.5 h, 1 h, and 1.5 h after administration, respectively.
The rats were individually placed in a plexiglass box with a grid at the bottom to ensure that the rat feet could be tested. Rats would acclimatize for 15 minutes prior to the test. After completion of the acclimatizing, test fiber (Touch-Test Sensory Evaluator) was used to test at the central plantar site of the left hind foot of the rats. In the test, the test fiber was pressed vertically against the skin and force was applied to bend the fiber for 6-8 seconds, with 5 seconds apart between each test. In the test, an animal's rapid withdrawal of the foot was noted as a pain response.

Structure (SMILES)	HPLC purity (%) ([1]; 0 days)	HPLC purity (%) ([1]; 40° C., 5 days)	HPLC purity (%) ([1]; 40° C., 10 days)	HPLC purity (%) ([1]; 40° C., 30 days)	stability at high temperature of 40° C. and under light of 4500 Lux [1]	HPLC purity (%) ([2]; 5 days)	HPLC purity (%) ([2]; 10 days)	HPLC purity (%) ([2]; 30 days)	Inhibition rate ([3]; scratches over 30 min) [%]	Number of scratches (mean ± standard error) ([3]; scratches over 30 min after 400 μg chloroquine intradermal)	appearance after sterilization when cooled to room temperature [4]	Pain inhibition rate ([5]; 0.5 hours after administration) [%]	Pain inhibition rate ([5]; 1 hours after administration) [%]	Pain inhibition rate ([5]; 1.5 hours after administration) [%]
CC(C)C[C@@H](NC(=O)[C@@H](Cc1ccccc1)NC(=O)[C@H](N)[C@H](C)c1ccccc1)C(=O)N[C@H](CCCCN)C(=O)N1CCC(N)(C(=O)O)C1 (stereo partly drawn) [Acetate salt (1:1)]	97.9	97.7	97.5	97.1	better stability	97.9	97.8	97.6						
CN(C(=O)Cc1ccc(Cl)c(Cl)c1)C(CN1CCCC1)c1cccc(OCC(=O)O)c1 (stereo not drawn) [ICI204448]									97.4	7.3 ± 2.43				
CC(C)C[C@@H](NC(=O)[C@@H](Cc1ccccc1)NC(=O)[C@H](N)[C@H](C)c1ccccc1)C(=O)N[C@H](CCCCN)C(=O)N1CCC(N)(C(=O)O)C1 (stereo partly drawn) [compound (II)]											a flocculent precipitate is separated out			
CC(C)C[C@@H](NC(=O)[C@@H](Cc1ccccc1)NC(=O)[C@H](N)[C@H](C)c1ccccc1)C(=O)N[C@H](CCCCN)C(=O)N1CCC(N)(C(=O)O)C1 (stereo partly drawn) [Citrate salt (1:1)]	96.8	95.7	94.6	93.5	degraded in different degrees	96.2	95.5	94.7						
CN1CC[C@]23c4c5ccc(O)c4O[C@H]2[C@@H](O)C=C[C@H]3[C@H]1C5 [Morphine, morphine]												122.5	84.2	27.9
CC(C)C[C@@H](NC(=O)[C@@H](Cc1ccccc1)NC(=O)[C@H](N)[C@H](C)c1ccccc1)C(=O)N[C@H](CCCCN)C(=O)N1CCC(N)(C(=O)O)C1 (stereo partly drawn) [Phosphate salt (1:1)]	96.5	95.6	94.3	92.3	degraded in different degrees	96.2	95.1	94.2						
